Reference: patent US20210253518A1, “KINASE INHIBITOR” (NISSAN CHEMICAL CORPORATION, priority 2018, published 2021)

Assays:
[1] = target: T1, LATS1 (Homo sapiens, UniProt O95835); test: Kinase Assay method (Fluorospark Kinase/ADP Multi-Assay Kit); format: biochemical
T1 construct: purchased Carna Biosciences
T1 sequence (O95835 589-1130 limits assumed): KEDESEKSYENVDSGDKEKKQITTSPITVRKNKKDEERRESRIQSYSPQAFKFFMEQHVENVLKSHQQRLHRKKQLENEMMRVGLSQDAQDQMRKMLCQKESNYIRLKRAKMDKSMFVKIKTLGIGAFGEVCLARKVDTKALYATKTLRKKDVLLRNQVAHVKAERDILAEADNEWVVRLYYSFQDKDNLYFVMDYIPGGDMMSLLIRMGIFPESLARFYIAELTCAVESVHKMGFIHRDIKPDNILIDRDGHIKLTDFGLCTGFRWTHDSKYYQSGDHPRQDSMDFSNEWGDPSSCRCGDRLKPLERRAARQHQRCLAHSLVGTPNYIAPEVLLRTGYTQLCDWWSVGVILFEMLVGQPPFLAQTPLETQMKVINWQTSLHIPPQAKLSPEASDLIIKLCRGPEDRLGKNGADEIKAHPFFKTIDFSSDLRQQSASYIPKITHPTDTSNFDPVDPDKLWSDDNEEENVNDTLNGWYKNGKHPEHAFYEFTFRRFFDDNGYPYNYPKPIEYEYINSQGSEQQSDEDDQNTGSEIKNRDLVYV
Procedure: (§1) For compound k-1:B-1 (racemate), GA-002A, GA-002B, GA-005A and GA-005B, inhibitory activity evaluation (calculation of IC50) was performed on LATS1 and LATS2 (manufactured by Carna Biosciences). The activity was measured using the Kinase Assay method described below. The compounds were added such that the test concentration of k-1:B-1 (racemate), GA-002A, GA-002B, GA-005A and GA-005B was in 8 steps (10 μM, 1 μM, 100 nM, […], 10 nM, 3 nM, 1 nM, 0.3 nM) from the final concentration of 10 μM to 0.3 nM.
(§2) As the analysis method of the data, the mean signal of the control well containing reaction components other than the evaluation compound was set to 0% inhibition, the mean signal without enzyme addition was set to 100% inhibition, and the inhibition rate was calculated from the mean signal of 2 wells of each test substance test. IC50 value was calculated using EXSUS (version 7.1.6, manufactured by CAC EXICARE Corporation).
(§3) 2 μL of a compound of the present invention solution at 2.5-fold concentration, 1 μL of substrate at 5-fold concentration (SGKtide: NH2—CKKRNRRLSVA-COOH, manufactured by SignalChem), ATP (manufactured by Sigma-Aldrich), MgCl2 (manufactured by FUJIFILM Wako Pure Chemical Corporation) solution (final concentration 10 μM, 400 μM or 5 mM), and 2 μL of kinase solution at 2.5-fold concentration (final concentration of LATS1 or LATS2 5 μg/mL), each prepared with assay buffer (20 mM HEPES, 0.01% Triton X-100, 2 mM DTT, pH 7.5), were mixed in the wells of a polypropylene 384-well plate (manufactured by Greiner Bio-One, #784900) and reacted at room temperature for 5 hr. Successively, 5 μL detection solution (Fluorospark (registered trade mark)Kinase/ADP Multi-Assay Kit; manufactured by FUJIFILM Wako Pure Chemical Corporation) was added, and the mixture was reacted at room temperature 30 min. Successively, 5 μL of a reaction quenching liquid (Fluorospark (registered trade mark) Kinase/ADP Multi-Assay Kit; manufactured by FUJIFILM Wako Pure Chemical Corporation) was added to discontinue the reaction. Thereafter, the ADP concentration of the reaction solution was quantified by EnSpire (manufactured by PerkinElmer) to detect the kinase reaction.

[2] = target: T2, LATS2 (Homo sapiens, UniProt Q9NRM7); test: as above; format: biochemical
T2 construct: purchased Carna Biosciences
T2 sequence (Q9NRM7 553-1088 limits assumed): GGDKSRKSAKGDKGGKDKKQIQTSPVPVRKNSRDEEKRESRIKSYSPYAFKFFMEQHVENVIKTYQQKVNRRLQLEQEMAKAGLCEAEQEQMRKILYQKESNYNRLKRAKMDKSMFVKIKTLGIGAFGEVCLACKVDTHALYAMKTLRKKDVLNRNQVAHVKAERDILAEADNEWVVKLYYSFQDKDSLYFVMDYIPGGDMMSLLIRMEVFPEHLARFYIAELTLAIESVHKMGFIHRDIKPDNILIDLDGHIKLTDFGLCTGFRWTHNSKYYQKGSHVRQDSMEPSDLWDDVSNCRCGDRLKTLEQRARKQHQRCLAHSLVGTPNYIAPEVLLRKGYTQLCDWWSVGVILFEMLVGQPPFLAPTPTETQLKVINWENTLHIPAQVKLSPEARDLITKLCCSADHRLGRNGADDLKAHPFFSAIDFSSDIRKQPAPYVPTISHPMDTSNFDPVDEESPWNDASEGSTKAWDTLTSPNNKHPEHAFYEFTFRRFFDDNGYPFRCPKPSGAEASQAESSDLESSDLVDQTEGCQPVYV
Procedure: as §1, §2, §3

[3] = Kinase Assay method, 8 steps 10 μM to 0.3 nM

SMILES: CC/C(=N\NC(=O)C(C)Nc1ccccc1)c1ccc(O)c(C)c1O (stereo not drawn) [k-1:B-1]
- inhibition at 0.1 µM ([1]; 100 nM, read-out: LARS1 inhibitory rate (%)): 94%
- inhibition at 1 µM ([1]; 1000 nM, read-out: LARS1 inhibitory rate (%)): 102%
- IC50 [1, 3]: 0.00888 µM
- inhibition at 0.1 µM ([2]; 100 nM, read-out: LARS2 inhibitory rate (%)): 75%
- inhibition at 1 µM ([2]; 1000 nM, read-out: LARS2 inhibitory rate (%)): 96%
- IC50 [2, 3]: 0.0308 µM
